Assay [1] relates to Human oral squamous cells carcinoma Cal27. As to the kind of experiment: growth inhibition of tumor cell Cal27 (SRB staining). The format is cell-based. Conditions: for growth inhibition rate / inhibition at 100 µM / inhibition at 10 µM / inhibition at 1 µM / inhibition at 0.1 µM / inhibition at 0.01 µM: 72 hours, SRB; for efficacy: Cal27, assessment of results; for inhibition at 100 µM / inhibition at 10 µM / inhibition at 1 µM / inhibition at 0.1 µM / inhibition at 0.01 µM: Homo sapiens, CAL-27, read-out: growth inhibition rate. The text has this: (§1) The compounds synthesized from the present invention were studied by sulforhodamine B protein staining (sulfothodalnine B, SRB) and miceroculture tetrazolinetetrozohuln (MTT) colorimetric method respectively for in vitro anti-tumor activity (Cancer Res., 1988, 48 (3): 589).
(§2) The concentration gradient of the test compounds of the present invention is 10^−4M, 10^−5M, 10^−6M, 10^−7M, 10^−8M, and the test compounds are 6-methoxy methyl ester gambogenic acid, ethyl ester gambogenic acid, 6-ethoxy ethyl ester gambogenic acid, 6-acyl gambogenic acid, piperidine gambogenic acid, diethylamide gambogenic acyl, morpholine gambogenic acid, and 12-hydroxy gambogenic acid, and 8,9-epoxy gambogenic acid. The test compounds and positive control gambogenic acid were diluted with dimethyl sulfoxide. Inhibition rate(%)=[(control group OD value−administered group OD value)/control group OD value]×100%
Human oral squamous cells carcinoma Cal27 were cultured in DMEM containing 10% fetal bovine serum (FBS), the cells with long-growth phase were forming suspension and culturing in 96-well plates. 10 μl test compounds of different concentrations as experimental group were added into each well of the 96-well plates. Blank control group received an equal volume containing the highest concentration of solvent (ie, 10^−4M dimethyl sulfoxide) in DMEM. After incubation at 37° C. under 5% carbon dioxide conditions for 72 hours, the cells were fixed with trichloroacetic acid, and each well was added with 100 μl SRB solution, unbound SRB was washed away, and then OD values were measured at 550 nm by an automatic plate reader spectrophotometer. A tumor cell group without drugs is a blank control group.
In general terms: Sulforhodamine B stains cellular protein and so reports cell mass.

The test system of assay [2] is Human breast cancer cells MCF-7. As to the kind of experiment: growth inhibition of tumor cell MCF-7 (MTT colorimetric method). The format is cell-based. Conditions: for growth inhibition rate / inhibition at 100 µM / inhibition at 10 µM / inhibition at 1 µM / inhibition at 0.1 µM / inhibition at 0.01 µM: 72 hours, MTT; for efficacy: MCF-7, assessment of results; for inhibition at 100 µM / inhibition at 10 µM / inhibition at 1 µM / inhibition at 0.1 µM / inhibition at 0.01 µM: Homo sapiens, MCF7, read-out: growth inhibition rate.
Source text: as §1, §2
Human breast cancer cells MCF-7 were cultured in DMEM containing 10% FBS, the cell with long-growth phase was formed into suspension and cultured in 96-well plates. The test compounds as experimental group with different concentrations were added into each well of the 96-well plates. Blank control group received an equal volume containing the highest concentration of solvent (ie, 10^−4M dimethyl sulfoxide) in DMEM. After incubation at 37° C. under 5% carbon dioxide conditions for 72 hours, each well was added with MTT to 1 mg/ml final concentration for incubation for 4 hours. The supernatant solution in each well was aspirated and added with 200 μl DMSO to dissolve crystals, and then OD values were measured at 490 nm by an automatic plate reader spectrophotometer. A tumor cell group without drugs is a blank control group.
On the technique in general: Tetrazolium assays rely on reduction of a dye to a coloured formazan, in cell work by metabolically active cells.

For the molecule 6-acyl gambogenic acid, the growth inhibition rate turned out to be 100% in assay [1] (Cal27, 10^−4M); 100% in assay [1] (Cal27, 10^−5M); 96% in assay [1] (Cal27, 10^−6M); 0% in assay [1] (Cal27, 10^−7M); 0% in assay [1] (Cal27, 10^−8M); 100% in assay [2] (MCF-7, 10^−4M). The growth inhibition rate worked out at 100% in assay [2] (MCF-7, 10^−5M); 83% in assay [2] (MCF-7, 10^−6M); 0% in assay [2] (MCF-7, 10^−7M); 0% in assay [2] (MCF-7, 10^−8M). For the same molecule, the efficacy result in assay [1] and in assay [2] was “potent (Potent: 10^−6M inhibition rate≧75% or 10^−7M inhibition rate>50%)” in each case.
For `CCOC(=O)/C(C)=C\CC12OC(C)(C)C3CC(C=C4C(=O)c5c(OCC)c(C/C=C(\C)CCC=C(C)C)c(O)c(CC=C(C)C)c5OC431)C2=O` (stereo not drawn) [6-ethoxy ethyl ester gambogenic acid, 6-ethoxyl gambogenic acid ethyl ester], the growth inhibition rate was 100% in assay [1] (Cal27, 10^−4M); 100% in assay [1] (Cal27, 10^−5M); 94% in assay [1] (Cal27, 10^−6M); 0% in assay [1] (Cal27, 10^−7M); 0% in assay [1] (Cal27, 10^−8M); 100% in assay [2] (MCF-7, 10^−4M). Also, the growth inhibition rate in assay [2] (MCF-7, 10^−5M) was found to be 100%; in assay [2] (MCF-7, 10^−6M), 86%; in assay [2] (MCF-7, 10^−7M), 0%; in assay [2] (MCF-7, 10^−8M), 0%. For the same molecule, the efficacy result in assay [1] and in assay [2] was “potent (Potent: 10^−6M inhibition rate≧75% or 10^−7M inhibition rate>50%)” in each case.
For the molecule `COC(=O)/C(C)=C\CC12OC(C)(C)C3CC(C=C4C(=O)c5c(OC)c(C/C=C(\C)CCC=C(C)C)c(O)c(CC=C(C)C)c5OC431)C2=O` (stereo not drawn) [6-methoxy methyl ester gambogenic acid], the growth inhibition rate in assay [1] (Cal27, 10^−4M) stood at 100%; in assay [1] (Cal27, 10^−5M), 100%; in assay [1] (Cal27, 10^−6M), 100%; in assay [1] (Cal27, 10^−7M) it was 0%; in assay [1] (Cal27, 10^−8M) it was 0%; in assay [2] (MCF-7, 10^−4M), 100%. Moreover, the growth inhibition rate came out at 100% in assay [2] (MCF-7, 10^−5M); 80% in assay [2] (MCF-7, 10^−6M); 0% in assay [2] (MCF-7, 10^−7M); 0% in assay [2] (MCF-7, 10^−8M). The efficacy entry in assay [1] and in assay [2] was “potent (Potent: 10^−6M inhibition rate≧75% or 10^−7M inhibition rate>50%)” throughout.
What is called inhibition is the relative decrease from the control value, in per cent. For the molecule `CC(C)=CCC/C(C)=C/Cc1c(O)c(CC=C(C)C)c2c(c1O)C(=O)C13OC1C1CC4C(C)(C)OC(C/C=C(\C)C(=O)O)(CC1=O)C43O2` (stereo not drawn) [8,9-epoxy gambogenic acid], the efficacy entry in assay [1] and in assay [2] was “potent (Potent: 10^−6M inhibition rate≧75% or 10^−7M inhibition rate>50%)” in each case. The inhibition at 100 µM in assay [1] (Cal27, 10^−4M) was determined as 100%; in assay [2] (MCF-7, 10^−4M), 100%. Moreover, the inhibition at 10 µM in assay [1] (Cal27, 10^−5M) was 100%; in assay [2] (MCF-7, 10^−5M), 100%. Further, the inhibition at 1 µM in assay [1] (Cal27, 10^−6M) was 100%; in assay [2] (MCF-7, 10^−6M) it was 80%. In addition, the inhibition at 0.1 µM in assay [1] (Cal27, 10^−7M) amounted to 0%; in assay [2] (MCF-7, 10^−7M), 0%. Besides, the inhibition at 0.01 µM came to 0% in assay [1] (Cal27, 10^−8M) and 0% in assay [2] (MCF-7, 10^−8M).
`CC(C)=CCC/C(C)=C/Cc1c(O)c(CC=C(C)C)c2c(c1O)C(=O)C1=CC3CC4C(C)(C)OC(C/C=C(\C)C(=O)O)(CC3O)C14O2` (stereo not drawn) [12-hydroxy gambogenic acid]: the efficacy result in assay [1] and in assay [2] was “potent (Potent: 10^−6M inhibition rate≧75% or 10^−7M inhibition rate>50%)” throughout. Besides, the inhibition at 100 µM in assay [1] (Cal27, 10^−4M) came to 100%; in assay [2] (MCF-7, 10^−4M), 100%. In addition, the inhibition at 10 µM in assay [1] (Cal27, 10^−5M) is 100%; in assay [2] (MCF-7, 10^−5M), 100%. For the same molecule, the inhibition at 1 µM is 100% in assay [1] (Cal27, 10^−6M) and 82% in assay [2] (MCF-7, 10^−6M). The inhibition at 0.1 µM is 0% in assay [1] (Cal27, 10^−7M) and 0% in assay [2] (MCF-7, 10^−7M). For the same molecule, the inhibition at 0.01 µM came out at 0% in assay [1] (Cal27, 10^−8M) and 0% in assay [2] (MCF-7, 10^−8M).
Turning to `CCN(CC)C(=O)/C(C)=C\CC12OC(C)(C)C3CC(C=C4C(=O)c5c(O)c(C/C=C(\C)CCC=C(C)C)c(O)c(CC=C(C)C)c5OC431)C2=O` (stereo not drawn) [diethylamide gambogenic acyl], the growth inhibition rate in assay [1] (Cal27, 10^−4M) is recorded as 100%; in assay [1] (Cal27, 10^−5M), 100%; in assay [1] (Cal27, 10^−6M), 100%; in assay [1] (Cal27, 10^−7M) it was 23%; in assay [1] (Cal27, 10^−8M) it was 0%; in assay [2] (MCF-7, 10^−4M), 100%. The growth inhibition rate is recorded as 100% in assay [2] (MCF-7, 10^−5M); 84% in assay [2] (MCF-7, 10^−6M); 0% in assay [2] (MCF-7, 10^−7M); 0% in assay [2] (MCF-7, 10^−8M). Further, the efficacy entry in assay [1] and in assay [2] was “potent (Potent: 10^−6M inhibition rate≧75% or 10^−7M inhibition rate>50%)” each time.
Consider `CCOC(=O)/C(C)=C\CC12OC(C)(C)C3CC(C=C4C(=O)c5c(O)c(C/C=C(\C)CCC=C(C)C)c(O)c(CC=C(C)C)c5OC431)C2=O` (stereo not drawn) [ethyl ester gambogenic acid], for which the growth inhibition rate in assay [1] (Cal27, 10^−4M) is 100%; in assay [1] (Cal27, 10^−5M), 100%; in assay [1] (Cal27, 10^−6M), 98%; in assay [1] (Cal27, 10^−7M), 0%; in assay [1] (Cal27, 10^−8M) it was 0%; in assay [2] (MCF-7, 10^−4M), 100%. The growth inhibition rate in assay [2] (MCF-7, 10^−5M) is on record as 100%; in assay [2] (MCF-7, 10^−6M), 96%; in assay [2] (MCF-7, 10^−7M) it was 0%; in assay [2] (MCF-7, 10^−8M) it was 0%. In addition, the efficacy result in assay [1] and in assay [2] was “potent (Potent: 10^−6M inhibition rate≧75% or 10^−7M inhibition rate>50%)” throughout.
On to `CC(C)=CCC/C(C)=C/Cc1c(O)c(CC=C(C)C)c2c(c1O)C(=O)C1=CC3CC4C(C)(C)OC(C/C=C(/C)C(=O)N5CCOCC5)(C3=O)C14O2` (stereo not drawn) [morpholine gambogenic acid], for which the growth inhibition rate in assay [1] (Cal27, 10^−4M) is 100%; in assay [1] (Cal27, 10^−5M), 100%; in assay [1] (Cal27, 10^−6M), 100%; in assay [1] (Cal27, 10^−7M) it was 14%; in assay [1] (Cal27, 10^−8M), 0%; in assay [2] (MCF-7, 10^−4M), 100%. Moreover, the growth inhibition rate in assay [2] (MCF-7, 10^−5M) was 100%; in assay [2] (MCF-7, 10^−6M), 78%; in assay [2] (MCF-7, 10^−7M) it was 14%; in assay [2] (MCF-7, 10^−8M) it was 0%. In addition, the efficacy entry in assay [1] and in assay [2] was “potent (Potent: 10^−6M inhibition rate≧75% or 10^−7M inhibition rate>50%)” throughout.

The values are drawn from patent US9187491B2, “Gambogenic acid derivatives, preparation method and application thereof” (Ninth People's Hospital, School Medicine Shanghai Jiao Tong …, priority 2012, dated 2015).
